Measurements as given in patent EP3262036B1, “THERAPEUTIC PYRIDAZINE COMPOUNDS AND USES THEREOF” (priority 2015, dated 2016).
Counter-ions that a name gives are not always drawn.

What follows are compounds tested against BRG1 (Homo sapiens, UniProt P51532) (assay: biochemical). Conditions: BRG1 HTRF IC50 (µM).
Format: binding
Description: IC50 measurements for inhibitors using BRG1 TR-FRET Binding Assay

Sequence of BRG1 (P51532 1448-1575): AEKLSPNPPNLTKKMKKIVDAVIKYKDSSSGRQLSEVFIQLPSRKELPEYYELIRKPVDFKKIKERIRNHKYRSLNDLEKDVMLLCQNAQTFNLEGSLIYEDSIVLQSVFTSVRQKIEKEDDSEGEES

Row | IC50 | SMILES
1 | 0.335 µM | Nc1ccc(-c2ccccc2O)nn1 [Example 203, 2-(6-aminopyridazin-3-yl)phenol]
2 | 1.08 µM | CC(=O)Nc1ccc(-c2ccccc2O)nn1 [Example 205, N-(6-(2-hydroxyphenyl)pyridazin-3-yl)acetamide]
3 | 0.183 µM | CN1CCC(c2cc(-c3ccccc3O)nnc2N)CC1 [Example 211, 2-(6-amino-5-(1-methylpiperidin-4-yl)pyridazin-3-yl)phenol]
4 | 0.0694 µM | CC(C)(C)OC(=O)N1CCC(c2cc(-c3ccccc3O)nnc2N)C1 (stereo not drawn) [Example 212, tert-butyl 3-(3-amino-6-(2-hydroxyphenyl)pyridazin-4-yl)pyrrolidine-1-carboxylate]
5 | 0.0611 µM | Nc1nnc(-c2ccccc2O)cc1C1CCOCC1 [Example 213, 2-(6-amino-5-(tetrahydro-2H-pyran-4-yl)pyridazin-3-yl)phenol]
6 | 0.112 µM | Nc1nnc(-c2ccccc2O)cc1C1CCCN(Cc2ccccc2)C1 (stereo not drawn) [Example 214, 2-[6-amino-5-(1-benzyl-3-piperidyl)pyridazin-3-yl]phenol]
7 | 0.743 µM | Nc1nnc(-c2ccccc2O)cc1C1CCNC1 (stereo not drawn) [Example 215, 2-(6-amino-5-(pyrrolidin-3-yl)pyridazin-3-yl)phenol hydrochloride]
8 | 0.765 µM | CN1CCC(c2cc(-c3ccccc3O)nnc2N)C1 (stereo not drawn) [Example 216, 2-(6-amino-5-(1-methylpyrrolidin-3-yl)pyridazin-3-yl)phenol 2,2,2-trifluoroacetate]
9 | 0.36 µM | Cc1ccc(S(=O)(=O)N2CCC(c3cc(-c4ccccc4O)nnc3N)CC2)cc1 [Example 219, 2-(6-amino-5-(1-tosylpiperidin-4-yl)pyridazin-3-yl)phenol]
10 | 0.0889 µM | Cc1ccc(S(=O)(=O)N2CC=C(c3cc(-c4ccccc4O)nnc3N)CC2)cc1 [Example 222, 2-(6-amino-5-(1-tosyl-1,2,3,6-tetrahydropyridin-4-yl)pyridazin-3-yl)phenol]
11 | 0.0602 µM | Nc1nnc(-c2ccccc2O)cc1C1CCN(S(=O)(=O)c2ccccc2)CC1 [Example 224, 2-(6-amino-5-(1-(phenylsulfonyl)piperidin-4-yl)pyridazin-3-yl)phenol]
12 | 0.0848 µM | CC(=O)N1CCC(c2cc(-c3ccccc3O)nnc2N)CC1 [Example 227, 1-(4-(3-amino-6-(2-hydroxyphenyl)pyridazin-4-yl)piperidin-1-yl)ethanone]
13 | 0.0537 µM | CS(=O)(=O)N1CCC(c2cc(-c3ccccc3O)nnc2N)CC1 [Example 228, 2-(6-amino-5-(1-(methylsulfonyl)piperidin-4-yl)pyridazin-3-yl)phenol]
14 | 0.0437 µM | CC(C)(O)C(=O)N1CCC(c2cc(-c3ccccc3O)nnc2N)CC1 [Example 229, 1-(4-(3-amino-6-(2-hydroxyphenyl)pyridazin-4-yl)piperidin-1-yl)-2-hydroxy-2-methylpropan-1-one]
15 | 0.0549 µM | Nc1nnc(-c2cc(F)ccc2O)cc1-c1ccccc1 [Example 230, 2-(6-amino-5-phenylpyridazin-3-yl)-4-fluorophenol]
16 | 0.995 µM | Nc1nnc(-c2ccc(F)cc2O)cc1-c1ccccc1 [Example 231, 2-(6-amino-5-phenylpyridazin-3-yl)-5-fluorophenol]
17 | 0.176 µM | Nc1nnc(-c2cc(F)cc(F)c2O)cc1-c1ccccc1 [Example 232, 2-(6-amino-5-phenylpyridazin-3-yl)-4,6-difluorophenol]
18 | 0.435 µM | Nc1nnc(-c2c(O)cccc2F)cc1-c1ccccc1 [Example 233, 2-(6-amino-5-phenylpyridazin-3-yl)-3-fluorophenol]

Further lines, the compound ahead of its results:

Row | SMILES | IC50
19 | Nc1nnc(-c2ccccc2O)cc1N1CCN(C(=O)c2cncs2)C(CO)C1 (stereo not drawn) [Example 143, (4-(3-amino-6-(2-hydroxyphenyl)pyridazin-4-yl)-2-(hydroxymethyl)piperazin-1-yl)(thiazol-5-yl)methanone] | 0.0206 µM
20 | C[C@@H]1CN(c2cc(-c3ccccc3O)nnc2N)CCN1C(=O)C(C)(C)O [Example 145, (R)-1-(4-(3-amino-6-(2-hydroxyphenyl)pyridazin-4-yl)-2-methylpiperazin-1-yl)-2-hydroxy-2-methylpropan-1-one] | 0.0642 µM
21 | C[C@H]1CN(c2cc(-c3ccccc3O)nnc2N)CCN1C(=O)C(C)(C)O [Example 146, (S)-1-(4-(3-amino-6-(2-hydroxyphenyl)pyridazin-4-yl)-2-methylpiperazin-1-yl)-2-hydroxy-2-methylpropan-1-one] | 0.0458 µM
22 | CNC(=O)CN1CCN(c2cc(-c3ccccc3O)nnc2N)C[C@H]1C [Example 148, (R)-2-(4-(3-amino-6-(2-hydroxyphenyl)pyridazin-4-yl)-2-methylpiperazin-1-yl)-N-methylacetamide] | 0.0613 µM
23 | C[C@H]1CN(c2cc(-c3ccccc3O)nnc2N)CCN1C(=O)c1cccnc1 [Example 155] | 0.166 µM
24 | C[C@@H]1CN(c2cc(-c3ccccc3O)nnc2N)CCN1C(=O)c1cccnc1 [Example 156] | 0.0435 µM
25 | CC(C)[C@H](N)C(=O)N1CCN(c2cc(-c3ccccc3O)nnc2N)C[C@H]1C [Example 157, 2-Amino-1-((R)-4-(3-amino-6-(2-hydroxyphenyl)pvridazin-4-yl)-2-methylpiperazin-1-yl)-3-methylbutan-1-one] | 0.0296 µM
26 | CC(C)[C@H](N)C(=O)N1CCN(c2cc(-c3ccccc3O)nnc2N)C[C@@H]1C [Example 158, 2-Amino-1-((R)-4-(3-amino-6-(2-hydroxyphenyl)pvridazin-4-yl)-2-methylpiperazin-1-yl)-3-methylbutan-1-one] | 0.113 µM
27 | CC1CN(c2cc(-c3ccccc3O)nnc2N)CCN1C(=O)CN(C)C (stereo not drawn) [Example 162, 1-(4-(3-amino-6-(2-hydroxyphenyl)pyridazin-4-yl)-2-methylpiperazin-1-yl)-2-(dimethylamino)ethanone] | 0.0586 µM
28 | CC(Oc1cc(-c2ccccc2O)nnc1N)C(C)(C)C (stereo not drawn) [Example 164, 2-(6-amino-5-((3,3-dimethylbutan-2-yl)oxy)pyridazin-3-yl)phenol] | 0.143 µM
29 | Nc1nnc(-c2ccccc2O)cc1O[C@H]1CCCC[C@@H]1c1ccccc1 [Example 165, 2-(6-amino-5-(((1,2-trans)-2-phenylcyclohexyl)oxy)pyridazin-3-yl)phenol] | 0.977 µM
30 | C[C@@H](Oc1cc(-c2ccccc2O)nnc1N)c1cccnc1 [Example 166, (R)-2-(6-amino-5-(1-(pyridin-3-yl)ethoxy)pyridazin-3-yl)phenol] | 0.132 µM
31 | C[C@H](Oc1cc(-c2ccccc2O)nnc1N)c1cccnc1 [Example 167, (S)-2-(6-amino-5-(1-(pyridin-3-yl)ethoxy)pyridazin-3-yl)phenol] | 0.0251 µM
32 | CC(Oc1cc(-c2ccccc2O)nnc1N)c1cccnc1 (stereo not drawn) [Example 171, 2-(6-amino-5-(1-(pyridin-3-yl)ethoxy)pyridazin-3-yl)phenol] | 0.0792 µM
33 | CN1CCC(Oc2cc(-c3ccccc3O)nnc2N)CC1 [Example 172, 2-(6-amino-5-((1-methylpiperidin-4-yl)oxy)pyridazin-3-yl)phenol] | 0.161 µM
34 | CN(C)CCCOc1cc(-c2ccccc2O)nnc1N [Example 175, 2-(6-amino-5-(3-(dimethylamino)propoxy)pyridazin-3-yl)phenol] | 0.117 µM
35 | Nc1nnc(-c2ccccc2O)cc1OC1CCCC1 [Example 176, 2-(6-amino-5-(cyclopentyloxy)pyridazin-3-yl)phenol] | 0.0371 µM
36 | Nc1nnc(-c2ccccc2O)cc1OC1CCCCC1 [Example 179, 2-(6-amino-5-(cyclohexyloxy)pyridazin-3-yl)phenol] | 0.0451 µM
37 | Nc1nnc(-c2ccccc2O)cc1OC1CCCN(Cc2ccccc2)C1 (stereo not drawn) [Example 181, 2-(6-amino-5-((1-benzylpiperidin-3-yl)oxy)pyridazin-3-yl)phenol] | 0.0337 µM
38 | Nc1nnc(-c2ccccc2O)cc1OC1CCc2ccccc21 (stereo not drawn) [Example 182, 2-(6-amino-5-((2,3-dihydro-1H-inden-1-yl)oxy)pyridazin-3-yl)phenol] | 0.606 µM
39 | Nc1nnc(-c2ccccc2O)cc1OC1CCCN(c2ccccc2)C1 (stereo not drawn) [Example 183, 2-(6-amino-5-((1-phenylpiperidin-3-yl)oxy)pyridazin-3-yl)phenol] | 0.0172 µM
40 | Nc1nnc(-c2ccccc2O)cc1OC1CCN(c2ccccc2)C1 (stereo not drawn) [Example 184, 2-(6-amino-5-((1-phenylpyrrolidin-3-yl)oxy)pyridazin-3-yl)phenol] | 0.192 µM
41 | Nc1nnc(-c2ccccc2O)cc1OC1CCCN(C(=O)c2ccccc2)C1 (stereo not drawn) [Example 185, (3-((3-amino-6-(2-hydroxyphenyl)pyridazin-4-yl)oxy)piperidin-1-yl)(phenyl)methanone] | 0.641 µM
42 | Nc1nnc(-c2ccccc2O)cc1C1CC1 [Example 190, 2-(6-amino-5-cyclopropylpyridazin-3 - yl)phenol] | 0.0176 µM
43 | Cn1nccc1-c1cc(-c2ccccc2O)nnc1N [Example 193, 2-(6-amino-5-(1-methyl-1H-pyrazol-5-yl)pyridazin-3-yl)phenol] | 1.08 µM
44 | CC(C(=O)N(C)C)n1cc(-c2cc(-c3ccccc3O)nnc2N)cn1 (stereo not drawn) [Example 194, 2-(4-(3-amino-6-(2-hydroxyphenyl)pyridazin-4-yl)-1 H-pyrazol-1-yl)-N,N-dimethylpropanamide] | 0.0247 µM
45 | C[C@H](C(=O)N(C)C)n1cc(-c2cc(-c3ccccc3O)nnc2N)cn1 [Example 195, 2-(4-(3-Amino-6-(2-hvdroxyphenyl)pyridazin-4-vl)-1H-pvrazol-1-yl)-N,N-dimethylpropanamide] | 0.0217 µM
46 | C[C@@H](C(=O)N(C)C)n1cc(-c2cc(-c3ccccc3O)nnc2N)cn1 [Example 196, 2-(4-(3-Amino-6-(2-hvdroxyphenyl)pyridazin-4-vl)-1H-pvrazol-1-yl)-N,N-dimethylpropanamide] | 0.0247 µM
47 | CC(C(=O)N(C)C)n1cnc(-c2cc(-c3ccccc3O)nnc2N)c1 (stereo not drawn) [Example 197, 2-(4-(3-amino-6-(2-hydroxyphenyl)pyridazin-4-yl)-1H-imidazol-1-yl)-N,N-dimethylpropanamide] | 0.0339 µM
48 | Nc1nnc(-c2ccccc2O)cc1C1=CCN(Cc2ccccc2)CC1 [Example 223, 2-(6-amino-5-(1-benzyl-1,2,3,6-tetrahydropyridin-4-yl)pyridazin-3-yl)phenol] | 0.0205 µM
